Assay results: a melting point compilation (Tetko et al.)

For O=C(O)/C=C/c1cc(Cl)c2c(c1)OCO2, the melting point was 259 to 261 °C. COc1ccc(S(=O)(=O)Cl)cc1C showed a melting point of 51 to 53 °C. CC(C)C(C#N)NC(=O)OC(C)(C)C (stereo unspecified) gave a melting point of 73 to 75 °C. Compound Cc1nnc(-c2cccc(C#N)c2)[nH]1 has a melting point of 173 to 175 °C. ON=Cc1ccc(OCc2cccnc2)cc1 showed a melting point of 187 to 189 °C. Compound N=c1nc[nH]c2c1ncn2CCC(N)=O has a melting point of 255 to 257 °C. In the case of NCC(c1ccc(Cl)cc1Cl)c1c[nH]c2ccccc12 (stereo unspecified), the melting point was 130 to 132 °C. Cc1cc(O)nc(NN)n1 showed a melting point of 213 to 215 °C. Compound O=C(CCl)N(Cc1nnc(-c2ccc(Cl)cc2)o1)C1CC1 has a melting point of 102 to 104 °C. Compound CC1CCc2c(sc3nc(S)n(Cc4ccco4)c(=O)c23)C1 (stereo unspecified) has a melting point of 275 to 277 °C. Cc1nn(-c2ccc(Br)cc2)c(C)c1C(=O)O gave a melting point of 231 to 233 °C. In the case of Cc1cc(C)cc(-n2c(C)cc(C(=O)O)c2C)c1, the melting point was 169 to 171 °C. Compound N#Cc1cc(Cl)ccn1 has a melting point of 81 to 85 °C. N#CC(c1ccccc1)(c1ccc(F)cc1)c1ccc(F)cc1 showed a melting point of 74 to 76 °C. In the case of ClCc1coc(-c2ccccc2Br)n1, the melting point was 46 to 48 °C. ON=Cc1nc2cc(Cl)ccc2o1 showed a melting point of 206 to 208 °C. Work on O=C(O)c1ccc(SCc2ccccc2)cc1 yielded a melting point of 184 to 186 °C. O=C(NCc1ccccc1)c1ccccc1O showed a melting point of 78 to 82 °C. With Cc1ccc2c(CCl)cc(=O)oc2c1 the melting point was 170 to 172 °C. In the case of Cc1noc(C)c1CSCC(=O)O, the melting point was 92 to 94 °C. In the case of O=C1CC(NC(=O)C(F)(F)F)c2ccccc21 (stereo unspecified), the melting point was 149 to 151 °C. For Cc1nnc(S)n1Cc1ccccc1, the melting point was 164 to 166 °C. Nn1ccccc1=O gave a melting point of 41 to 43 °C. Compound CC(C)(NC(=O)Nc1ccccc1)C(=O)O has a melting point of 165 to 167 °C. Work on COC(=O)C(Cl)c1cc(Cl)cc(Cl)c1 (stereo unspecified) yielded a melting point of 56 to 58 °C. In the case of O=C(O)c1ccc(CNC(=O)c2cccs2)cc1, the melting point was 209 to 211 °C. NC(=O)C1CCCO1 (stereo unspecified) gave a melting point of 76 to 78 °C. Compound CNC(C(=O)O)c1cc(F)ccc1F (stereo unspecified) has a melting point of 239 to 241 °C. CC(=O)N1CCc2cc(C(=O)C(C)Cl)ccc21 (stereo unspecified) gave a melting point of 129 to 131 °C. O=C(O)CCc1cc(Cl)cs1 gave a melting point of 69 to 71 °C. In the case of NC(=O)COCc1ccccc1, the melting point was 92 to 94 °C. In the case of CC(Cl)C(=O)Nc1ncc(Cl)cc1Cl (stereo unspecified), the melting point was 113 to 115 °C. In the case of Cc1cccc(NC(=O)C(C)Cl)c1 (stereo unspecified), the melting point was 128 to 130 °C. In the case of Cc1nc(N)[nH]c(=O)c1CC(=O)O, the melting point was 313 to 315 °C. Compound CS(=O)(=O)Nc1cccc(C(=O)O)c1 has a melting point of 230 to 232 °C. COc1cc(N)ccc1S(=O)(=O)Nc1ccc(F)c(Cl)c1 gave a melting point of 165 to 167 °C. With CCNc1nc(NCC)n2c(S)nnc2n1 the melting point was 98 to 100 °C. Cc1cc(Br)ccc1CO showed a melting point of 74 to 76 °C. With COc1ccc(NS(=O)(=O)c2cccs2)cc1 the melting point was 120 to 122 °C. Compound COc1ccc(C(=O)NN)c(OC)c1 has a melting point of 112 to 114 °C. With COc1cccc(-c2ccc(CN)cc2)c1 the melting point was 46 to 48 °C. Work on OCc1nc2cc(Cl)ccc2s1 yielded a melting point of 113 to 115 °C. Compound O=C(Nc1ccc(C(=O)O)c(O)c1)c1cccc(Br)c1 has a melting point of 239 to 241 °C. Compound NC(c1ccncc1)c1ccc(F)cc1 (stereo unspecified) has a melting point of 63 to 65 °C. Compound Nc1ccc(S(=O)C(F)F)cc1 (stereo unspecified) has a melting point of 83 to 85 °C. In the case of Cc1cc(S(C)(=O)=O)cc(C(=O)O)c1C, the melting point was 199 to 201 °C. Work on Cc1sc2ncn(CC(=O)O)c(=O)c2c1C yielded a melting point of 229 to 231 °C. In the case of CCOC(=O)c1ccc2c(c1)nc(C)n2CC, the melting point was 70 to 72 °C. With COc1ccc(NC(=O)CCCl)c([N+](=O)[O-])c1 the melting point was 97 to 99 °C. CN(C)C(=O)Cn1cc(C(=O)O)nn1 showed a melting point of 199 to 201 °C. For Clc1ncnc2c1nnn2-c1ccccc1, the melting point was 115 to 117 °C. With O=Cc1cnc2ccnn2c1 the melting point was 166 to 168 °C. Compound CS(=O)(=O)c1ccc(N)cc1 has a melting point of 132 to 134 °C. Compound CCCCn1ncc(C(=O)O)c1C has a melting point of 77 to 79 °C. Compound N#Cc1c(F)cccc1Sc1ccccc1 has a melting point of 108 to 110 °C. Work on COc1cc(/C=C/C(=O)O)cc(Cl)c1OC(C)C yielded a melting point of 113 to 115 °C. COc1ccccc1NS(=O)(=O)c1ccc2oc(S)nc2c1 gave a melting point of 109 to 113 °C. In the case of Cc1c(C(=O)O)cnn1-c1cccc(C(F)(F)F)c1, the melting point was 122 to 124 °C. Compound COCCNc1nnnn1C has a melting point of 59 to 61 °C. For Sc1nnc(COc2ccccc2Cl)o1, the melting point was 135 to 137 °C. In the case of O=Cc1ccccc1OCc1ccccn1, the melting point was 73 to 75 °C. Compound O=C1NCC(=O)N2CCCCC12 (stereo unspecified) has a melting point of 153 to 155 °C. With O=C1NC2(CCCC2)C(=O)N1CCBr the melting point was 97 to 99 °C. Nc1nc2c(s1)CN(Cc1ccccc1)CC2 gave a melting point of 95 to 98 °C. CCC(Nc1nnnn1-c1ccccc1)C(=O)O (stereo unspecified) showed a melting point of 149 to 151 °C. In the case of COC(=O)c1ccc(-c2ccc(C(=O)O)cc2)cc1, the melting point was 300 to 302 °C. O=S(=O)(c1cccc(-c2nnc(S)n2-c2ccc(OC(F)(F)F)cc2)c1)N1CCOCC1 gave a melting point of 247 to 249 °C. Compound O=C(O)c1ccc(C(F)(F)C(F)(F)F)cc1 has a melting point of 152 to 154 °C. CC1Oc2ccc(Cl)cc2NC1=O (stereo unspecified) showed a melting point of 171 to 173 °C. COC(=O)c1ccc(C(=O)O)o1 gave a melting point of 194 to 196 °C. In the case of O=C(O)C1CCCN1S(=O)(=O)c1cccs1 (stereo unspecified), the melting point was 99 to 101 °C.
